Measured values from patent US9868692B2, “Compounds and compositions for intracellular delivery of therapeutic agents” (MODERNATX, Inc., priority 2015, dated 2018).

Legend:
[1] = Residual lipid level in spleen of rats (UPLC-MS quantification); assay type: in vivo; conditions: rat, iv, 48 hours, read-out: Spleen level
Protocol: (§1) To pre-weighed tissues, Milli-Q water was added (900 μL water per 100 mg tissue). Tissues were homogenized using an Omni probe homogenizer until uniform. 50 μL of samples and matrix calibration standards were aliquoted into a 96-well plate. 50 μL of blank matrix for matrix blanks and control blanks were aliquoted. 400 μL IS spiking solution were manually added to all samples except matrix blanks. 400 μL of 50:50 ACN:IPA were manually added to matrix blanks. The plate was covered and the samples vortexed and centrifuged for 5 minutes at >3000 rpm. 200 μL of the samples were transferred into a clean 96-well plate for analysis. […] Detection was based on electrospray ionization (ESI) in positive mode using a Sciex API5500 Mass Spectrometer.
(§2) The expression of hEPO in rats intravenously administered a nanoparticle composition at a dose of 0.2 mpk or 2.0 mpk was measured at 6 hours. […] Liver and spleen levels represent the average values calculated for 3 rats in each group.
(§3) The expression of hEPO and lipid levels in the liver and spleen in rats intravenously administered a nanoparticle composition at a dose of 0.2 mpk was measured at various timepoints. […] Lipids were formulated according to the standard MC3 formulation described above.

[2] = Particle size, polydispersity index (and zeta potential) of nanoparticle compositions, Zetasizer Nano ZS; assay type: physicochemical; conditions: Table 1A formulations
Excerpt: Nanoparticle compositions may be characterized by a variety of methods. For example, microscopy (e.g., transmission electron microscopy or scanning electron microscopy) may be used to examine the morphology and size distribution of a nanoparticle composition. Dynamic light scattering or potentiometry (e.g., potentiometric titrations) may be used to measure zeta potentials. Dynamic light scattering may also be utilized to determine particle sizes. Instruments such as the Zetasizer Nano ZS (Malvern Instruments Ltd, Malvern, Worcestershire, UK) may also be used to measure multiple characteristics of a nanoparticle composition, such as particle size, polydispersity index, and zeta potential.
A Zetasizer Nano ZS (Malvern Instruments Ltd, Malvern, Worcestershire, UK) can be used to determine the particle size, the polydispersity index (PDI) and the zeta potential of the nanoparticle compositions in 1×PBS in determining particle size and 15 mM PBS in determining zeta potential.

[3] = Residual lipid level in liver of rats (UPLC-MS quantification); assay type: in vivo; conditions: rat, liver, iv, intravenous, 48 hours, read-out: Liver level
Protocol: as §1, §2, §3

[4] = Encapsulation efficiency of RNA, QUANT-IT RIBOGREEN RNA assay; assay type: physicochemical; conditions: Table 1A formulations
Excerpt: The efficiency of encapsulation of a therapeutic and/or prophylactic describes the amount of therapeutic and/or prophylactic that is encapsulated or otherwise associated with a nanoparticle composition after preparation, relative to the initial amount provided. The encapsulation efficiency is desirably high (e.g., close to 100%). The encapsulation efficiency may be measured, for example, by comparing the amount of therapeutic and/or prophylactic in a solution containing the nanoparticle composition before and after breaking up the nanoparticle composition with one or more organic solvents or detergents. Fluorescence may be used to measure the amount of free therapeutic and/or prophylactic (e.g., RNA) in a solution. For the nanoparticle compositions described herein, the encapsulation efficiency of a therapeutic and/or prophylactic may be at least 50%, for example 50%, 55%, 60%, 65%, 70%, 75%, 80%, 85%, 90%, 91%, 92%, 93%, 94%, 95%, 96%, 97%, 98%, 99%, or 100%. In some embodiments, the encapsulation efficiency may be at least 80%. In certain embodiments, the encapsulation efficiency may be at least 90%.
For nanoparticle compositions including an RNA, a QUANT-IT™ RIBOGREEN® RNA assay (Invitrogen Corporation Carlsbad, Calif.) can be used to evaluate the encapsulation of an RNA by the nanoparticle composition. The samples are diluted to a concentration of approximately 5 μg/mL in a TE buffer solution (10 mM Tris-HCl, 1 mM EDTA, pH 7.5). 50 μL of the diluted samples are transferred to a polystyrene 96 well plate and either 50 μL of TE buffer or 50 μL of a 2% Triton X-100 solution is added to the wells. The plate is incubated at a temperature of 37° C. for 15 minutes. The RIBOGREEN® reagent is diluted 1:100 in TE buffer, and 100 μL of this solution is added to each well. The fluorescence intensity can be measured using a fluorescence plate reader (Wallac Victor 1420 Multilablel Counter; Perkin Elmer, Waltham, Mass.) at an excitation wavelength of, for example, about 480 nm and an emission wavelength of, for example, about 520 nm. The fluorescence values of the reagent blank are subtracted from that of each of the samples and the percentage of free RNA is determined by dividing the fluorescence intensity of the intact sample (without addition of Triton X-100) by the fluorescence value of the disrupted sample (caused by the addition of Triton X-100).

[5] = Lipid clearance: % dose remaining in liver after administration of Luc formulations; assay type: in vivo, mice; conditions: Table 3D

Question: With `CCCCCCCCC(CC)OC(=O)CCCCCCCN(CCO)CCCCCCCC(=O)OC(CCCCCCCC)CCCCCCCC` (centres unmarked) [Compound 49, heptadecan-9-yl 8-((2-hydroxyethyl)(8-oxo-8-(undecan-3-yloxy)octyl)amino)octanoate] as the molecule, how does the concentration at 48 h ([1]; 0.2 mg/kg, 0.2 mpk) read?
Answer: 0.36

Question: What about the concentration at 48 h ([1]; 2 mg/kg, 2 mpk) of the same molecule?
Answer: 0.37

Question: What about the PDI [2] of the same molecule?
Answer: 0.110

Question: And the concentration at 48 h ([3]; 0.2 mg/kg, 0.2 mpk)?
Answer: 6490 ng/g

Question: And the concentration at 48 h ([3]; 2 mg/kg, 2 mpk)?
Answer: 61400 ng/g

Question: And the “EE (%)” value [4]?
Answer: 96.86%

Question: What does the source list for `CCCC/C=C\CCC(CC/C=C\CCCC)OC(=O)CCCCCCCN(CCO)CCCCCC(=O)OCCCCCCCCCCC` [Compound 61, (5Z,12Z)-heptadeca-5,12-dien-9-yl 8-((2-hydroxyethyl)(6-oxo-6-(undecyloxy)hexyl)amino)octanoate]?
Answer: PDI [2]: 0.11; EE (%) [4]: 97.2%

Question: Which results are given for `CCCCCCCCC(CC)OC(=O)CCCN(CCO)CCCCCCCC(=O)OC(CCCCCCCC)CCCCCCCC` (centres unmarked) [Compound 72, Heptadecan-9-yl 8-((2-hydroxyethyl)(4-oxo-4-(undecan-3-yloxy)butyl)amino)octanoate]?
Answer: PDI [2]: 0.11; EE (%) [4]: 97.3%

Question: For `CCCCCCCCC(CC)OC(=O)CCCCCN(CCO)CCCCCCCC(=O)OC(CCCCCCCC)CCCCCCCC` (centres unmarked) [Compound 75, Heptadecan-9-yl 8-((2-hydroxyethyl)(6-oxo-6-(undecan-3-yloxy)hexyl)amino)octanoate], which PDI [2] is on record?
Answer: 0.10

Question: What about the “EE (%)” value [4] of the same molecule?
Answer: 98.1%

Question: Which results are given for `CCCCCCCCCC(=O)OCCCCCCCN(CCO)CCCCCCCC(=O)OC(CCCCCCCC)CCCCCCCC` [Compound 96, 7-((8-(Heptadecan-9-yloxy)-8-oxooctyl)(2-hydroxyethyl)amino)heptyl decanoate]?
Answer: % Dose Remaining in Liver 6h ([5]; first column of this head): <1%; % Dose Remaining in Liver 6h ([5]; second column of this head): <1%

Question: For `CCCCCCCCCOC(=O)CCCCCCCN(CCCCCCCC(=O)OC(CCCCCCCC)CCCCCCCC)CCCNC(=O)N(C)C` [Compound 110, Heptadecan-9-yl 8-((3-(3,3-dimethylureido)propyl)(8-(nonyloxy)-8-oxooctyl)amino)octanoate], which PDI [2] is on record?
Answer: 0.13

Question: And the “EE (%)” value [4]?
Answer: 97.4%

Question: Which results are given for `CCCCCCCCCOC(=O)CCCCCCCN(CCCCCCCC(=O)OC(CCCCCCCC)CCCCCCCC)CCCNC(=S)N(C)C` [Compound 111, Heptadecan-9-yl 8-((3-(3,3-dimethylthioureido)propyl)(8-(nonyloxy)-8-oxooctyl)amino)octanoate]?
Answer: PDI [2]: 0.14; EE (%) [4]: 98.2%

Question: Which PDI [2] does the source give for `CCCCCCCCCOC(=O)CCCCCCCN(CCCCCCCC(=O)OC(CCCCCCCC)CCCCCCCC)CCCNC(=S)NC` [Compound 113, Heptadecan-9-yl 8-((3-(3-methylthioureido)propyl)(8-(nonyloxy)-8-oxooctyl)amino)octanoate] here?
Answer: 0.15

Question: And the “EE (%)” value [4]?
Answer: 99%

Question: Which results are given for `CCCCCCCCC(CCCCCCCC)OC(=O)CCCCCCCN(CCO)CCCCCC(=O)OC(CCCCCCCC)C1CC1` (centres unmarked) [Compound 128, Heptadecan-9-yl 8-((6-((1-cyclopropylnonyl)oxy)-6-oxohexyl)(2-hydroxyethyl)amino)octanoate]?
Answer: PDI [2]: 0.14; EE (%) [4]: 98.2%

Question: With `CCCCCCCCC(CCCCCCCC)OC(=O)CCCCCCCN(CCO)CCCCCCCC(=O)OCC(CCCCCCC)OC` (centres unmarked) [Compound 148, Heptadecan-9-yl 8-((2-hydroxyethyl)(8-((2-methoxynonyl)oxy)-8-oxooctyl)amino)octanoate] as the molecule, how does the “% Dose Remaining in Liver 6h” value ([5]; first column of this head) read?
Answer: <1%

Question: And the “% Dose Remaining in Liver 6h” value ([5]; second column of this head)?
Answer: <1%

Question: Which “% Dose Remaining in Liver 6h” value ([5]; first column of this head) does the source give for `CCCCCCCCC(CCCCCCCC)OC(=O)CCCCCCCN(C)CCCCCCCCCCCC(=O)OCCCCC` [Compound 150, Pentyl 12-((8-(heptadecan-9-yloxy)-8-oxooctyl)(methyl)amino)dodecanoate] here?
Answer: <1%

Question: And the “% Dose Remaining in Liver 6h” value ([5]; second column of this head)?
Answer: <1%

Question: For `CCCCCCCCCC(=O)OCCCCCCCN(CCO)CCCCCCCOC(=O)C(CCCCCCCC)CCCCCCCC` [Compound 151, 7-((7-(Decanoyloxy)heptyl)(2-hydroxyethyl)amino)heptyl 2-octyldecanoate], which “% Dose Remaining in Liver 6h” value ([5]; first column of this head) is on record?
Answer: <1%

Question: What about the “% Dose Remaining in Liver 6h” value ([5]; second column of this head) of the same molecule?
Answer: <1%

Question: Which results are given for `CCCCCCCCCOC(=O)CCCCCCCN(CCO)CCCCCCCCCC(CCCCCCCC)CCCCCCCC` [Compound 153, Nonyl 8-((2-hydroxyethyl)(10-octyloctadecyl)amino)octanoate]?
Answer: % Dose Remaining in Liver 6h ([5]; first column of this head): <1%; % Dose Remaining in Liver 6h ([5]; second column of this head): <1%

Question: For `CCCCCCCCCOC(=O)CCCCCCCN(CCCCCCCC(=O)OC(CCCCCCCC)CCCCCCCC)C(CO)CO` [Compound 156, Heptadecan-9-yl 8-((1,3-dihydroxypropan-2-yl)(8-(nonyloxy)-8-oxooctyl)amino)octanoate], which PDI [2] is on record?
Answer: 0.072

Question: What about the “EE (%)” value [4] of the same molecule?
Answer: 98.90%

Question: Which “% Dose Remaining in Liver 6h” value ([5]; first column of this head) does the source give for `CCCCCCCCCOC(=O)CCCCCCCN(CCCCCCCC(=O)OC(CCCCCCCC)CCCCCCCC)C(C)CO` (centres unmarked) [Compound 157, Heptadecan-9-yl 8-((1-hydroxypropan-2-yl)(8-(nonyloxy)-8-oxooctyl)amino)octanoate] here?
Answer: <1%

Question: And the “% Dose Remaining in Liver 6h” value ([5]; second column of this head)?
Answer: <1%

Question: And the PDI [2]?
Answer: 0.096

Question: With `CCCCCCCCCOC(=O)CCCCCCCN(CCCCCCCC(=O)OC(CCCCCCCC)CCCCCCCC)CCCNc1c(N(C)C)c(=O)c1=O` [Compound 169, Heptadecan-9-yl 8-((3-((2-(dimethylamino)-3,4-dioxocyclobut-1-en-1-yl)amino)propyl)(8-(nonyloxy)-8-oxooctyl)amino)octanoate] as the molecule, how does the PDI [2] read?
Answer: 0.18

Question: And the “EE (%)” value [4]?
Answer: 99.04%

Question: With `CCCCCCCCCOC(=O)CCCCCCCN(CCCCCCCC(=O)OC(CCCCCCCC)CCCCCCCC)CCCN/C(=C/[N+](=O)[O-])NC` [Compound 170, Heptadecan-9-yl (E)-8-((3-((1-(methylamino)-2-nitrovinyl)amino)propyl)(8-(nonyloxy)-8-oxooctyl)amino)octanoate] as the molecule, how does the PDI [2] read?
Answer: 0.12

Question: What about the “EE (%)” value [4] of the same molecule?
Answer: 98.24%

Question: What does the source list for `CCCCCCCCCOC(=O)CCCCCCCN(CCCCCCCC(=O)OC(CCCCCCCC)CCCCCCCC)CCCN1C(=O)CNC1=O` [Compound 174, Heptadecan-9-yl 8-((3-(2,5-dioxoimidazolidin-1-yl)propyl)(8-(nonyloxy)-8-oxooctyl)amino)octanoate]?
Answer: PDI [2]: 0.12; EE (%) [4]: 98.52%
